Laboratory results published in patent publication US5885824A, “Recombinant genomic clone encoding the histamine H2 receptor, methods for production thereof, and protein produced therefrom” (The Regents of the University of Michigan, priority 1993, dated 1999).
“Also recorded” adds a separate entry of the source.

How the values were obtained:
[1] = target: T1, canine histamine H2 receptor (Canis lupus familiaris, UniProt P17124); assay: cyclic AMP content of L-cells transfected with CMVneo vector containing the canine histamine H2 receptor gene insert; type: cell-based; conditions: for effect on cAMP content: doses as high as 10^-4 M, transfected L-cells
T1 construct: cloning of the entire gene encoding a histamine H2 receptor using cDNA derived from mRNA isolated from a canine gastric cell source; expressed in transfected cells; host or cells: mouse L-cells, permanently transfected (CMVneo vector, G418 selection)

[2] = target: T1, canine histamine H2 receptor; assay: inhibition of [methyl-3H]-tiotidine binding to transformed L-cells; conditions: for inhibition of [methyl-3H]-tiotidine binding (in words): percent of maximal specific binding
Procedure: Transformed L-cells were plated and grown to confluence in 2.4×1.7 cm multi-well plates. The culture media was removed and cells were washed twice with Earle's balanced salt solution containing 0.1% bovine serum albumin. An aliquot (36 nCi) of [methyl-^3 H]-tiotidine (87 Ci/mmol; Dupont, Boston Mass.) was added to the culture in the presence of either cimetidine or diphenhydramine and after one hour of incubation, the medium was removed by aspiration. The cells were washed twice with 0.2M phosphate buffered NaCl pH 7.4, lysed with 1% Triton X-100, and the radioactivity was quantified. Maximum binding was determined by incubation of [methyl-^3H]-tiotidine with transformed L-cells in the absence of antagonists and non-specific binding, which was subtracted from total binding to obtain specific binding, was determined as the amount of label remaining bound in the presence of 10^-4 M histamine. The data, presented as percent of maximal specific binding, are from a single experiment and are virtually identical to data obtained in two other experiments.

T1 sequence (P17124 whole entry): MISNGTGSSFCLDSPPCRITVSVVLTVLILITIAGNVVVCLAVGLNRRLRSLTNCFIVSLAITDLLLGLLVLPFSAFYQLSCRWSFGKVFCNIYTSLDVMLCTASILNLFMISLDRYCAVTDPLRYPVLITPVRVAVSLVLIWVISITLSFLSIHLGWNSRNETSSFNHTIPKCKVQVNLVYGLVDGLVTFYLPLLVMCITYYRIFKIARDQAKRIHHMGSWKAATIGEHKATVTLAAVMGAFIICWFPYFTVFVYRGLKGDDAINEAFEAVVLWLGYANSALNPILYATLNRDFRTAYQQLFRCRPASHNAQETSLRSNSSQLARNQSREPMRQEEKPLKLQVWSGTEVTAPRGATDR

| SMILES | effect on cAMP content [1] | inhibition of [methyl-3H]-tiotidine binding (in words) [2] | also measured |
| --- | --- | --- | --- |
| NCCc1ccc(O)c(O)c1 [dopamine] | no effect | – | – |
| NCCc1c[nH]cn1 [histamine] | – | – | activation at 10 µM ([1]; 1 h, read-out: maximum increase in cellular cyclic AMP content): 217 ± 10% |
| NCCc1c[nH]c2ccc(O)cc12 [Serotonin] | no effect | – | – |
| CNC[C@H](O)c1ccc(O)c(O)c1 [epinephrine] | no effect | – | – |
| CN/C(=N/CCSCc1nc[nH]c1C)NC#N [cimetidine] | – | dose-dependently inhibited label binding | effect on histamine cAMP dose-response curve ([1]; 60 min pre-incubation with cimetidine (10^-4 M)): shifted to the right; IC50 ([2]; one hour of incubation, mean±se n=4, read-out: ED50 for displacement of [methyl-3H]-tiotidine binding): 550 nM |
| CN(C)CCOC(c1ccccc1)c1ccccc1 [diphenhydramine] | – | inhibited binding only at the very highest dose; also recorded: no ability to inhibit [methyl-^3 H]-tiotidine except with the highest dose | – |
